Test results as given in PubChem BioAssay AID1963873 (Molecular Pharmacology Branch, DTP, NCI, 2024).

Test system: 276233-004-R-J1-PDC KRAS spheroids with HUVEC/MSC, viability
Assay: Anticancer human tumor 276233-004-R-J1-PDC patient-derived colon adenocarcinoma cell line growth inhibition [KRAS2]
Details: for viability, T/C: stronger effect = lower value
Procedure, shortened: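 KRAS-mutant tumor cells were grown as spheroids with HUVEC endothelial cells and human MSCs as stroma. Targeted agents were tested alone and with KRAS pathway inhibitors. Doses started at or near clinical Cmax, or 10 microM, descending half-log.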

[1] = curve of first compound, second compound 0.1 µM
[2] = curve of first compound, second compound 0.316 µM
[3] = curve of first compound, second compound 1 µM
[4] = curve of first compound, second compound 3.16 µM
[5] = second compound 0.1 µM, first compound 0.0316 µM
[6] = second compound 0.1 µM, first compound 0.1 µM
[7] = second compound 0.1 µM, first compound 0.316 µM
[8] = second compound 0.1 µM, first compound 1 µM
[9] = second compound 0.1 µM, first compound 3.16 µM
[10] = second compound 0.1 µM, first compound 10 µM
[11] = second compound 0.316 µM, first compound 0.0316 µM
[12] = second compound 0.316 µM, first compound 0.1 µM
[13] = second compound 0.316 µM, first compound 0.316 µM
[14] = second compound 0.316 µM, first compound 1 µM
[15] = second compound 0.316 µM, first compound 3.16 µM
[16] = second compound 0.316 µM, first compound 10 µM
[17] = second compound 1 µM, first compound 0.0316 µM
[18] = second compound 1 µM, first compound 0.1 µM
[19] = second compound 1 µM, first compound 0.316 µM
[20] = second compound 1 µM, first compound 1 µM
[21] = second compound 1 µM, first compound 3.16 µM
[22] = second compound 1 µM, first compound 10 µM
[23] = second compound 3.16 µM, first compound 0.0316 µM
[24] = second compound 3.16 µM, first compound 0.1 µM
[25] = second compound 3.16 µM, first compound 0.316 µM
[26] = second compound 3.16 µM, first compound 1 µM
[27] = second compound 3.16 µM, first compound 3.16 µM
[28] = second compound 3.16 µM, first compound 10 µM
[29] = curve of first compound, second compound 10 µM
[30] = second compound 10 µM, first compound 0.0316 µM
[31] = second compound 10 µM, first compound 0.1 µM
[32] = second compound 10 µM, first compound 0.316 µM
[33] = second compound 10 µM, first compound 1 µM
[34] = second compound 0.1 µM, first compound 0.00316 µM
[35] = second compound 0.1 µM, first compound 0.01 µM
[36] = second compound 0.316 µM, first compound 0.00316 µM
[37] = second compound 0.316 µM, first compound 0.01 µM
[38] = second compound 1 µM, first compound 0.00316 µM
[39] = second compound 1 µM, first compound 0.01 µM
[40] = second compound 3.16 µM, first compound 0.00316 µM
[41] = second compound 3.16 µM, first compound 0.01 µM
[42] = second compound 10 µM, first compound 0.00316 µM
[43] = second compound 10 µM, first compound 0.01 µM
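Note: cells exposed to agents for seven days before viability read.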
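Throughout, for viability, T/C: 100% = DMSO vehicle control wells and lower values mean fewer viable cells.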

Cn1nccc1Nc1nccc(-c2cc3c(s2)C(C)(C)N(CCN2CCOCC2)C3=O)n1 + C=CC(=O)N1CCN(c2nc(OCC3CCCN3C)nc3c2CCN(c2cccc4cccc(C)c24)C3)CC1CC#N
IC50 (curve of first compound, second compound 0.0316 µM): 4830 nM | IC50 [1]: > 10000 nM | IC50 [2]: > 10000 nM | IC50 [3]: > 10000 nM | IC50 [4]: 236 nM | viability, T/C (second compound 0.0316 µM, first compound 0.0316 µM): 99.8% | viability, T/C (second compound 0.0316 µM, first compound 0.1 µM): 108% | viability, T/C (second compound 0.0316 µM, first compound 0.316 µM): 86.1% | viability, T/C (second compound 0.0316 µM, first compound 1 µM): 75.9% | viability, T/C (second compound 0.0316 µM, first compound 3.16 µM): 51.7% | viability, T/C (second compound 0.0316 µM, first compound 10 µM): 44.5% | viability, T/C [5]: 100% | viability, T/C [6]: 99.3% | viability, T/C [7]: 79.7% | viability, T/C [8]: 75.7% | viability, T/C [9]: 51.7% | viability, T/C [10]: 52.2% | viability, T/C [11]: 109% | viability, T/C [12]: 98% | viability, T/C [13]: 101% | viability, T/C [14]: 77.8% | viability, T/C [15]: 56.4% | viability, T/C [16]: 57.4% | viability, T/C [17]: 101% | viability, T/C [18]: 109% | viability, T/C [19]: 87.2% | viability, T/C [20]: 77% | viability, T/C [21]: 55.3% | viability, T/C [22]: 65.9% | viability, T/C [23]: 68.7% | viability, T/C [24]: 46.7% | viability, T/C [25]: 46.7% | viability, T/C [26]: 47.5% | viability, T/C [27]: 21.2% | viability, T/C [28]: 10.9%

O=C(c1cc(Cc2n[nH]c(=O)c3ccccc23)ccc1F)N1CCN(C(=O)C2CC2)CC1 + C=CC(=O)N1CCN(c2nc(=O)n(-c3c(C)ccnc3C(C)C)c3nc(-c4c(O)cccc4F)c(F)cc23)C(C)C1
IC50 [1]: > 10000 nM | IC50 [2]: > 10000 nM | IC50 [3]: > 10000 nM | IC50 [4]: > 10000 nM | IC50 [29]: > 10000 nM | viability, T/C [5]: 83.6% | viability, T/C [6]: 96% | viability, T/C [7]: 78.6% | viability, T/C [8]: 110% | viability, T/C [9]: 82.6% | viability, T/C [10]: 71.8% | viability, T/C [11]: 103% | viability, T/C [12]: 103% | viability, T/C [13]: 108% | viability, T/C [14]: 99% | viability, T/C [15]: 105% | viability, T/C [16]: 87.9% | viability, T/C [17]: 121% | viability, T/C [18]: 105% | viability, T/C [19]: 98.7% | viability, T/C [20]: 82.9% | viability, T/C [21]: 98.9% | viability, T/C [22]: 99.4% | viability, T/C [23]: 86.4% | viability, T/C [24]: 98.1% | viability, T/C [25]: 82.5% | viability, T/C [26]: 103% | viability, T/C [27]: 85.2% | viability, T/C [28]: 89.8% | viability, T/C [30]: 84.1% | viability, T/C [31]: 83.5% | viability, T/C [32]: 83.2% | viability, T/C [33]: 73.5% | viability, T/C (second compound 10 µM, first compound 3.16 µM): 78.2% | viability, T/C (second compound 10 µM, first compound 10 µM): 77.8%

CN(C)C/C=C/C(=O)Nc1cc2c(Nc3ccc(F)c(Cl)c3)ncnc2cc1O[C@H]1CCOC1 + CNCc1ccccc1-c1csc(C(C)Nc2nc(C)nc3cc(OC)c(OC)cc23)c1
IC50 [1]: > 100 nM | IC50 [2]: > 100 nM | IC50 [3]: > 100 nM | IC50 [4]: < 0.316 nM | IC50 [29]: < 0.316 nM | viability, T/C (second compound 0.1 µM, first compound 0.000316 µM): 95.8% | viability, T/C (second compound 0.1 µM, first compound 0.001 µM): 106% | viability, T/C [34]: 89% | viability, T/C [35]: 95.2% | viability, T/C [5]: 86.8% | viability, T/C [6]: 74.7% | viability, T/C (second compound 0.316 µM, first compound 0.000316 µM): 95.9% | viability, T/C (second compound 0.316 µM, first compound 0.001 µM): 82.5% | viability, T/C [36]: 83.1% | viability, T/C [37]: 73% | viability, T/C [11]: 67.9% | viability, T/C [12]: 69.8% | viability, T/C (second compound 1 µM, first compound 0.000316 µM): 81.4% | viability, T/C (second compound 1 µM, first compound 0.001 µM): 73.5% | viability, T/C [38]: 77.3% | viability, T/C [39]: 81.2% | viability, T/C [17]: 63% | viability, T/C [18]: 79.2% | viability, T/C (second compound 3.16 µM, first compound 0.000316 µM): 4.26% | viability, T/C (second compound 3.16 µM, first compound 0.001 µM): 2.41% | viability, T/C [40]: 3.56% | viability, T/C [41]: 3.46% | viability, T/C [23]: 8.28% | viability, T/C [24]: 1.18% | viability, T/C (second compound 10 µM, first compound 0.000316 µM): 5.68% | viability, T/C (second compound 10 µM, first compound 0.001 µM): 0.19% | viability, T/C [42]: 0.31% | viability, T/C [43]: 0.19% | viability, T/C [30]: 0.88% | viability, T/C [31]: 0.67%

CCN1CCN(Cc2ccc(Nc3ncc(F)c(-c4cc(F)c5nc(C)n(C(C)C)c5c4)n3)nc2)CC1 + CC1OCC2(CCN(c3cnc(Sc4ccnc(N)c4Cl)c(N)n3)CC2)C1N
IC50 [1]: > 1000 nM | IC50 [2]: > 1000 nM | IC50 [3]: > 1000 nM | IC50 [4]: > 1000 nM | IC50 [29]: > 1000 nM | viability, T/C [34]: 89.9% | viability, T/C [35]: 99.2% | viability, T/C [5]: 87% | viability, T/C [6]: 76.5% | viability, T/C [7]: 93.5% | viability, T/C [8]: 111% | viability, T/C [36]: 81.3% | viability, T/C [37]: 89.6% | viability, T/C [11]: 80.7% | viability, T/C [12]: 85.6% | viability, T/C [13]: 104% | viability, T/C [14]: 99.5% | viability, T/C [38]: 83.7% | viability, T/C [39]: 86% | viability, T/C [17]: 69.3% | viability, T/C [18]: 72.3% | viability, T/C [19]: 93.4% | viability, T/C [20]: 67% | viability, T/C [40]: 74.5% | viability, T/C [41]: 66.5% | viability, T/C [23]: 68.8% | viability, T/C [24]: 62.8% | viability, T/C [25]: 54.7% | viability, T/C [26]: 70% | viability, T/C [42]: 51.2% | viability, T/C [43]: 71% | viability, T/C [30]: 58.7% | viability, T/C [31]: 53.6% | viability, T/C [32]: 64.6% | viability, T/C [33]: 63%

CC1(C)CCC(CN2CCN(c3ccc(C(=O)NS(=O)(=O)c4ccc(NCC5CCOCC5)c([N+](=O)[O-])c4)c(Oc4cnc5[nH]ccc5c4)c3)CC2)=C(c2ccc(Cl)cc2)C1
viability, T/C (compound 0.0316 µM): 93.5% [middle of 5 runs] | viability, T/C (compound 0.1 µM): 88.8% [middle of 5 runs] | viability, T/C (compound 0.316 µM): 102% [middle of 5 runs] | viability, T/C (compound 1 µM): 93.4% [middle of 5 runs] | IC50 (curve of compound): > 10000 nM
